Measured values taken from patent US6288080A, “Magnesium quinolone antibiotics” (priority 1998, dated 2001).
Each block holds one molecule with its values, some of them ahead of it.

How the values were obtained:
[1] = Aqueous solubility of the quinolone and its crystal forms; assay type: physicochemical; details: for solubility of crystal form: depending upon the crystal form
Excerpt: The compounds disclosed in U.S. Pat. No. 5,563,155, ('155) are incorporated by reference here to fully disclose and enable this invention. The following compounds of the '155 patent are pointed out and particularly incorporated here. […] More particularly disclosed by incorporation by reference are those compounds of '155, in claim 1, where R2 is H and where R or R' is H. The quinolone where R2 is H and where R or R' is H can be combined with Mg2+ ions to produce a soluble complex having reduced injection site irritation. More preferred are the compounds of '155, in claim 1, where R2 is H and where R or R' is H, and where R3 is H and X is C--O--CH3. The esters of these compounds are also disclosed herein, the carboxy esters of 1-8 carbon groups are disclosed here, including all isomeric combinations (CH3, C2 H5, C3 H7, C4 H9, C5 H11, C6 H13, C7 H15, C8 H17 -- both straight and branched chains) and especially preferred are the carboxy esters of 1-4 carbon groups such as in U.S. Pat. No. 5,563,155, claim 1, where R2 is an alkyl of 1-4 carbon atoms or a cation. Even more preferred are the compounds of claim 2, most particularly the compound of claim 8 or 3R,1S-1-cyclopropyl-7-(3-(1-(methylamino)ethyl)-1-pyrrolidinyl)-6-fluoro-1,4-dihydro-8-methoxy-4-oxo-3-quinolinecarboxylic acid. […] Also, particular attention is directed to the descriptions in the specification of the '155 patent that correspond or are relevant to those claims and compounds described here.
The quinolones mentioned above can exist in different forms, the different forms having different solubilities. […] Even though it is the less soluble crystal form, Form III is very suitable as the quinolone that may be combined with Mg2+ in this invention. See, WO96/16055, incorporated by reference.
The compounds that may be made into solutions of this type are those compounds disclosed in Formula 1 and in U.S. Pat. No. 5,563,155, incorporated herein by reference and particularly 3R,1S-1-cyclopropyl-7-(3-(1-(methylamino)ethyl)-1-pyrrolidinyl)-6-fluoro-1,4-dihydro-8-methoxy-4-oxo-3-quinolinecarboxylic acid. […]

[2] = Total 14C-quinolone tissue residue depletion; assay type: in vivo, Holstein calves; details: for Total 14C-quinolone residues at injection site / Total 14C-quinolone residues in fat / Total 14C-quinolone residues in kidneys / Total 14C-quinolone residues in liver / Total 14C-quinolone residues in lungs / Total 14C-quinolone residues in muscle: 10 mg/kg
Method: (§1) Experiment 7. The determination of preliminary residue depletion profile in calves following subcutaneous administration of 14C-quinolone with and without magnesium.
(§2) Formulations: Radiolabeled quinolone was combined with unlabeled quinolone to yield solutions containing quinolone at 50 mg/mL with a specific activity of 2.25 uCi/mg. Solution 1: 4.92 g of unlabeled quinolone and 11.26 mCi 14C-quinolone were dissolved in 0.16 M HCl, the solution was titrated to pH 4-5 with 1 M NaOH and diluted with deionized water to a final volume of 100 mL. Solution 2: 4.92 g of unlabeled quinolone and 11.26 mCi 14C-quinolone were dissolved in 0.24 M MgCl2 --6H2 O and diluted to 100 mL with deionized water.
(§3) Treatment Groups: Ten (male and female) Holstein calves approximately 50-85 kg were used. Each animal was injected with a single subcutaneous injection (approximately 0.2 mL dose solution/kg body weight). The dose level was approximately 10 mg/kg (22.5 uCi/kg) body weight. Whole blood samples (approximately 50 mL) were collected from each animal at 0.5, 1, 1.5, 2, 2.5, 3, 6, 12, 24, and 48 h after dosing or until euthanasia. Following euthanasia, fat, muscle, lung, kidney, liver and injection site tissue samples (approximately 500 g) were collected. Blood and tissue samples were combusted and drug residue determined by liquid scintillation counting.

[3] = Injection site reaction after subcutaneous injection in animals (general statement); assay type: in vivo; details: without Mg2+
Excerpt: Unfortunately these compounds also produce a severe adverse reaction at the injection site when injected subcutaneously in animals.

[4] = Serum depletion profile of 14C-quinolone with and without magnesium; assay type: in vivo, Holstein calves; details: single subcutaneous, approximately 10 mg/kg
Method: as §1, §2, §3

solubility of crystal form [1]: about 2.2 mg/ml
Compound: CN[C@@H](C)[C@@H]1CCN(c2c(F)cc3c(=O)c(C(=O)O)cn(C4CC4)c3c2OC)C1 [Form 3, 3R,1S-1-cyclopropyl-7-(3-(1-(methylamino)ethyl)-1-pyrrolidinyl)-6-fluoro-1,4-dihydro-8-methoxy-4-oxo-3-quinolinecarboxylic acid]

solubility of crystal form [1]: about 10.8 mg/ml
Compound: CN[C@@H](C)[C@@H]1CCN(c2c(F)cc3c(=O)c(C(=O)O)cn(C4CC4)c3c2OC)C1 [Form 1, 3R,1S-1-cyclopropyl-7-(3-(1-(methylamino)ethyl)-1-pyrrolidinyl)-6-fluoro-1,4-dihydro-8-methoxy-4-oxo-3-quinolinecarboxylic acid]

estimated intrinsic solubility ([1]; 25° C.): about 2.2 mg/ml
Total 14C-quinolone residues at injection site ([2]; 3 hr): 10,482 μg/g
Total 14C-quinolone residues in fat ([2]; 3 hr): 45.4 µg/g
Total 14C-quinolone residues in kidneys ([2]; 3 hr): 353.2 µg/g
Total 14C-quinolone residues in liver ([2]; 3 hr): 215.5 µg/g
Total 14C-quinolone residues in lungs ([2]; 3 hr): 146.8 µg/g
Total 14C-quinolone residues in muscle ([2]; 3 hr): 50.1 µg/g
Total 14C-quinolone residues at injection site ([2]; 6 hr): 12,382 μg/g
Total 14C-quinolone residues in fat ([2]; 6 hr): 16.8 µg/g
Total 14C-quinolone residues in kidneys ([2]; 6 hr): 234.1 µg/g
Total 14C-quinolone residues in liver ([2]; 6 hr): 147.2 µg/g
Total 14C-quinolone residues in lungs ([2]; 6 hr): 96.6 µg/g
Total 14C-quinolone residues in muscle ([2]; 6 hr): 38.4 µg/g
Total 14C-quinolone residues at injection site ([2]; 12 hr): 1,737 μg/g
Total 14C-quinolone residues in fat ([2]; 12 hr): 7.8 µg/g
Total 14C-quinolone residues in kidneys ([2]; 12 hr): 121.3 µg/g
Total 14C-quinolone residues in liver ([2]; 12 hr): 110.9 µg/g
Total 14C-quinolone residues in lungs ([2]; 12 hr): 53.1 µg/g
Total 14C-quinolone residues in muscle ([2]; 12 hr): 24.3 µg/g
Total 14C-quinolone residues at injection site ([2]; 24 hr): 932.5 µg/g
Total 14C-quinolone residues in fat ([2]; 24 hr): 13.9 µg/g
Total 14C-quinolone residues in kidneys ([2]; 24 hr): 90.3 µg/g
Total 14C-quinolone residues in liver ([2]; 24 hr): 59.5 µg/g
Total 14C-quinolone residues in lungs ([2]; 24 hr): 27.6 µg/g
Total 14C-quinolone residues in muscle ([2]; 24 hr): 9.4 µg/g
Total 14C-quinolone residues at injection site ([2]; 48 hr): 225.7 µg/g
Total 14C-quinolone residues in fat ([2]; 48 hr): 1.7 µg/g
Total 14C-quinolone residues in kidneys ([2]; 48 hr): 15.0 µg/g
Total 14C-quinolone residues in liver ([2]; 48 hr): 13.4 µg/g
Total 14C-quinolone residues in lungs ([2]; 48 hr): 4.8 µg/g
Total 14C-quinolone residues in muscle ([2]; 48 hr): 1.4 µg/g
injection site concentration of QFB ([2]; single subcutaneous, approximately 10 mg/kg): 10,480 ug/g
serum concentration at 1 hour ([4]; 1 hour): 30400 ng/mL
serum concentration after 48 hours ([4]; 48 hours): 1000 ng/mL
Compound: CN[C@@H](C)[C@@H]1CCN(c2c(F)cc3c(=O)c(C(=O)O)cn(C4CC4)c3c2OC)C1 [QFB, [S-(R*,S*)]-1-Cyclopropyl-6-fluoro-1,4-dihydro-8-methoxy-7-[3-[1-(methylamino)ethyl]-1-pyrrolidinyl]-4-oxo-3-quinolinecarboxylic acid]
adverse reaction at injection site [3]: dramatic swelling, discoloration, internal and external lesions and even necrosis
